{"source": "patent US20240197828A1", "about": "“Chimeric molecule to treat sepsis and other inflammatory conditions” (THE FEINSTEIN INSTITUTES FOR MEDICAL RESEARCH, priority 2022, published 2024)", "target": "T1, αvβ3-integrin (Mus musculus, UniProt O54890+P43406)", "T1 construct": "purchased R&D Systems 7889-AV-050", "T1 sequence (P43406 31-988 limits assumed)": "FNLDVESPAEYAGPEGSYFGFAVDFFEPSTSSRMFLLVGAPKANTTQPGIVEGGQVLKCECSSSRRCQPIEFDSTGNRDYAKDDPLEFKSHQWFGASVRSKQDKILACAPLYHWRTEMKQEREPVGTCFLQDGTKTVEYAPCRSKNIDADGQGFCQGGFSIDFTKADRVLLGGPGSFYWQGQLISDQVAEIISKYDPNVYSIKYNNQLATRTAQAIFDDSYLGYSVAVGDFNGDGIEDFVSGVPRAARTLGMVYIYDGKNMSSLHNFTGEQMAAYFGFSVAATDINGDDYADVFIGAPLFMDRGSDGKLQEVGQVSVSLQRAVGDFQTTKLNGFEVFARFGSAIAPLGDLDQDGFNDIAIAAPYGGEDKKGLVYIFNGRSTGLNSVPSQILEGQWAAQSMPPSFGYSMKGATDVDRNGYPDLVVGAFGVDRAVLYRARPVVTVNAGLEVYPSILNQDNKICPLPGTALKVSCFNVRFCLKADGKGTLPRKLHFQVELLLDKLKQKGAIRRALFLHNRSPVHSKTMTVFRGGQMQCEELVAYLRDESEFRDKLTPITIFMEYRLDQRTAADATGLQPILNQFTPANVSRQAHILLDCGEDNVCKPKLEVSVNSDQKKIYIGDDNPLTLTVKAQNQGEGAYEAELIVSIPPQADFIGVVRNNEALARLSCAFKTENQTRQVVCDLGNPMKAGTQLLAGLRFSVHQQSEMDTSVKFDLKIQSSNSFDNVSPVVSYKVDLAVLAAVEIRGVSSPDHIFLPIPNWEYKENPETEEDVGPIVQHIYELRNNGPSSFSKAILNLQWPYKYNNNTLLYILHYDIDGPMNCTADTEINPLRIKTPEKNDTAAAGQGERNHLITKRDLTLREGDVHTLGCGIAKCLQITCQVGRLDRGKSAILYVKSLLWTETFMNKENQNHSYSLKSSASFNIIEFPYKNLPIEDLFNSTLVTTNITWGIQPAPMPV", "T1 sequence (O54890 26-717 limits assumed)": "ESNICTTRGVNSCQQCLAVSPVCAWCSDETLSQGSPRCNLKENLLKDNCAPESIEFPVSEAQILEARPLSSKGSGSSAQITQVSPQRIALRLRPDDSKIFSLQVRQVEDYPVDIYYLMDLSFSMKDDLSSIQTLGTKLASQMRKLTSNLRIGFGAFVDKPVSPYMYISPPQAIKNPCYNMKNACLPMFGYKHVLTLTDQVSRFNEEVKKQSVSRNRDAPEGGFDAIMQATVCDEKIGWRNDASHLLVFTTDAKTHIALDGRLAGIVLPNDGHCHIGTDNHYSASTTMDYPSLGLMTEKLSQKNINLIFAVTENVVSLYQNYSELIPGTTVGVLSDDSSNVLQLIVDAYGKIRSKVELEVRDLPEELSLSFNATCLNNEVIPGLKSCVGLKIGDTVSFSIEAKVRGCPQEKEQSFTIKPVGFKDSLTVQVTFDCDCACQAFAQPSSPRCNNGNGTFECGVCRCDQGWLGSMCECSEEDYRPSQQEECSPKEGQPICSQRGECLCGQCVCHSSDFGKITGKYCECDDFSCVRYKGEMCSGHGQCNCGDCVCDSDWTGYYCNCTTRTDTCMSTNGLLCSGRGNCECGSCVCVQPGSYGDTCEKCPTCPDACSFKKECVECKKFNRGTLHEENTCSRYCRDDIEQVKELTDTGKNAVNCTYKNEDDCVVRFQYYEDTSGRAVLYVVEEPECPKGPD", "test": "Surface plasmon resonance binding to αvβ3-integrin", "conditions": "Example 2, Biacore; integrin analyte 31.25 to 125 nM; read-out: KD, binding to αvβ3-integrin receptor", "description": "For Biacore experiments, recombinant murine (rm) CIRP was purchased from Cubasio Technology LLC (Cat #. CSB-EP613483He0), rmMFG-E8 was purchased from R&D Systems (Cat #2767-MF-050), and auß3-integrin was purchased from R&D Systems (Cat #7889-AV-050). For in vitro studies, recombinant human (rh)- and rmMFG-E8 and rmCIRP was produced by our lab as previously described (4). […] The known AA sequence of DD-2 (157 amino acids long) of murine MFG-E8 was split into ˜15 AA long sequences with a 5 AA long overlap. This portion of the peptide was designed to bind to eCIRP. The 15 AA sequences were then all tagged with three AA long, Arg-Gly-Asp (RGD), designed to bind to the integrin receptor. […] All peptides were screened in vitro for the ability to attenuate eCIRP-induced TNFα production. […]\nTo examine the direct interaction between rmCIRP and rmMFG-E8, surface plasmon resonance (SPR), OpenSPR (Nicoya), was performed between rmCIRP and rmMFG-E8. rmCIRP was immobilized on carboxyl sensor and rmMFG-E8 was injected as an analyte in concentrations of 15.7 nM to 250 nM. […] To evaluate binding, the analyte was injected into flow cell-1 and flow cell-2 and increasing concentrations and real-time interaction data were analyzed by TraceDrawer (Nicoya). […]", "note": "Residues, ends and D or L forms follow the SMILES beside them."}
{"smiles": "CC(C)C[C@H](NC(=O)[C@H](CC(N)=O)NC(=O)[C@H](Cc1c[nH]c2ccccc12)NC(=O)[C@@H](NC(=O)[C@H](CCCCN)NC(=O)[C@H](Cc1ccc(O)cc1)NC(=O)[C@H](CO)NC(=O)[C@H](CO)NC(=O)[C@H](CO)NC(=O)[C@H](CC(=O)O)NC(=O)CNC(=O)[C@@H](N)CCCNC(=N)N)[C@@H](C)O)C(=O)N[C@@H](CCCNC(=N)N)C(=O)N[C@@H](C)C(=O)N[C@@H](Cc1ccccc1)C(=O)NCC(=O)N[C@@H](Cc1c[nH]c2ccccc12)C(=O)N[C@@H](Cc1ccc(O)cc1)C(=O)O", "note": "[MOP3, RGDSSSYKTWNLRAFGWY] (H-RGDSSSYKTWNLRAFGWY-OH; N-terminus and C-terminus assumed)", "values": [{"measurement": "Kd", "value": 776, "unit": "nM"}]}
